From article PMC6773865, “Functional recruitment of dynamin requires multimeric interactions for efficient endocytosis” (Nature Communications, 2019)

Tested on: rat brain lysate proteins
Experiment: Affinity isolation (pull-down) from rat brain lysate, silver stain and proteomics
Type: binding
Conditions: for proteins pulled down (silver stain, words): biotinylated peptide, rat brain lysate, streptavidin beads; for enrichment of co-precipitated proteins by mass spectroscopy: in comparison to control conditions (absence of peptide)
Protocol: Brains were obtained from adult (2–3 months old) Sprague-Dawley rats raised in the animal facility of Bordeaux University B 33 063 917. Animals were killed by decapitation after isoflurane anaesthesia (5%, 3 min), in accordance with the European 2010/63/EU directive and approved by the Bordeaux University Ethics Committee (CE50). Frozen brains (2 × ~1.5 g) were thawed in 20 mL ice cold modified RIPA buffer (50 mM Tris pH 7.5, 150 mM NaCl, 0.1% SDS, 0.5% sodium deoxycholate, 1% NP-40, 1 mM EDTA) containing a protease inhibitor mixture (1:1000; Protease Inhibitor Cocktail set III; Calbiochem) for about 5 min and cut into small pieces. The tissues were homogenised using a glass/teflon homogeniser. Homogenates were centrifuged at 7500 × g for 25 min at 4 °C to remove cell debris. The supernatant was aliquoted and stored at −80 °C until the affinity-based isolation (pull-down) experiments were performed. Streptavidin-coated beads (Dynabeads M-280, Life Technologies) were washed three times and incubated for 15 min at room temperature (RT) in modified RIPA buffer supplemented with 0.1% BSA. Rat brain lysates were incubated with the biotinylated peptide (or biotin as a negative control) for 10 min at RT before addition of the beads and further incubation for 5 min at RT. Beads were washed five times in RIPA buffer and transferred into new eppendorf tubes. For elution, acetylated ligands were added in excess to the bead suspension and incubated for 5 min at RT. The supernatant was kept for proteomics analysis and electrophoresis followed by silver staining after addition of fresh 6× sample buffer (ProteoSilver Silver Stain Kit, Sigma-Aldrich).
Samples were solubilized in Laemlli buffer and were deposited in triplicate onto SDS-PAGE. Separation was stopped once proteins have entered resolving gel. After colloidal blue staining, bands were cut out from the SDS-PAGE gel and subsequently cut in 1 mm × 1 mm gel pieces. Gel pieces were destained in 25 mM ammonium bicarbonate 50% MeCN, rinsed twice in ultrapure water and shrunk in MeCN for 10 min. After MeCN removal, gel pieces were dried at room temperature, covered with the trypsin solution (10 ng/µl in 50 mM NH4HCO3), rehydrated at 4 °C for 10 min, and finally incubated overnight at 37 °C. Spots were then incubated for 15 min in 50 mM NH4HCO3 at room temperature with rotary shaking. The supernatant was collected, and an H2O/MeCN/HCOOH (47.5:47.5:5) extraction solution was added onto gel slices for 15 min. The extraction step was repeated twice. Supernatants were pooled and dried in a vacuum centrifuge to a final volume of 25 µL. Digests were finally resuspended in 25 µl of formic acid (5%, v/v) and stored at −20 °C.
Peptide mixture was analysed on a Ultimate 3000 nanoLC system (Dionex, Amsterdam, The Netherlands) coupled to a nanospray LTQ-Orbitrap XL mass spectrometer (ThermoFinnigan, San Jose, CA). Ten microliters of peptide digests were loaded onto a 300-µm-inner diameter × 5-mm C18 PepMap^TM trap column (LC Packings) at a flow rate of 30 µL/min. The peptides were eluted from the trap column onto an analytical […] × 15-cm C18 Pep-Map column (LC Packings) with a 4–40% linear gradient of solvent B in 35 min (solvent A was 0.1% formic acid in 5% MeCN, and solvent B was 0.1% formic acid in 80% MeCN). The separation flow rate was set at 300 nL/min. The mass spectrometer operated in positive ion mode at a 2-kV needle voltage. Data were acquired in a data-dependent mode. Mass spectrometry (MS) scans (m/z 300–1700) were recorded at a resolution of R = 70,000 (@ m/z 400) and an AGC target of 5 × 10^5 ions collected within 500 ms. Dynamic exclusion was et to 30 s and top 6 ions were selected from fragmentation in CID mode. MS/MS scans with a target value of 1 × 10^4 ions were collected in the ion trap with a maximum fill time of 200 ms. Additionally, only +2 and +3 charged ions were selected for fragmentation. […]

[1] = pull-down from rat brain lysate, LC-MS/MS, vs no peptide control

## CC(=O)N[C@@H](Cc1ccc(O)cc1)C(=O)N[C@@H](CCCCn1cc(CCC(=O)NCCCOCCOCCOCCCNC(=O)CCC(=O)NCCCOCCOCCOCCCNC(=O)CCC(=O)NCCCOCCOCCOCCCNC(=O)CCC(=O)N2CCC[C@H]2C(=O)N2CCC[C@H]2C(=O)N2CCC[C@H]2C(=O)N[C@@H](CCC(N)=O)C(=O)N[C@H](C(=O)N2CCC[C@H]2C(=O)N[C@@H](CO)C(=O)N[C@@H](CCCNC(=N)N)C(=O)N2CCC[C@H]2C(=O)N[C@@H](CC(N)=O)C(=O)N[C@@H](CCCNC(=N)N)C(=O)N[C@@H](C)C(=O)N2CCC[C@H]2C(=O)N2CCC[C@H]2C(=O)NCC(N)=O)C(C)C)nn1)C(=O)NCCCOCCOCCOCCCNC(=O)CCC(=O)NCCCOCCOCCOCCCNC(=O)CCC(=O)NCCCOCCOCCOCCCNC(=O)CCC(=O)N1CCC[C@H]1C(=O)N1CCC[C@H]1C(=O)N1CCC[C@H]1C(=O)N[C@@H](CCC(N)=O)C(=O)N[C@H](C(=O)N1CCC[C@H]1C(=O)N[C@@H](CO)C(=O)N[C@@H](CCCNC(=N)N)C(=O)N1CCC[C@H]1C(=O)N[C@@H](CC(N)=O)C(=O)N[C@@H](CCCNC(=N)N)C(=O)N[C@@H](C)C(=O)N1CCC[C@H]1C(=O)N1CCC[C@H]1C(=O)NCC(N)=O)C(C)C [dD15-N]
  proteins pulled down (silver stain, words): isolated a number of proteins
  enrichment of co-precipitated proteins by mass spectroscopy: highly enriched in CME related proteins
[1]
  Max fold change, AP2a1: 28.6
  Max fold change, AP2a2: 13.8
  Max fold change, AP2b1: 40.0
  Max fold change, AP2m1: 25.5
  Max fold change, Actg1: 2.2
  Max fold change, Actg2: 2.3
  Max fold change, Amphiphysin1: 40.7
  Max fold change, Amy1a: 2.8
  Max fold change, Appbp2: 20.8
  Max fold change, Atp1a3: 33.4
  Max fold change, BIN1 (Amph2): 70.2
  Max fold change, CD2-ap: 124.5
  Max fold change, CHC: 22.7
  Max fold change, Calcoco1: 11.9
  Max fold change, Capza1: 23.0
  Max fold change, Dnm1: 27.4
  Max fold change, Endophilin-A1: 53.5
  Max fold change, Endophilin-A2: 1.7
  Max fold change, Eps15l1: 196.9
  Max fold change, Hspa5: 4.1
  Max fold change, Hspa8: 15.6
  Max fold change, Hspa9: 42.1
  Max fold change, Intersectin-1: 60.7
  Max fold change, Intersectin-2: 118.9
  Max fold change, Rundc3a: 16.0
  Max fold change, SH3d19: 42.9
  Max fold change, SH3kbp1/CIN85: 207.5
  Max fold change, SNX18: 16.1
  Max fold change, Tuba1a: 13.3
  Max fold change, Tuba4a: 14.5
  Max fold change, Tubb2a: 75.4
  Max fold change, Tubb3: 1.2
  Max fold change, Tubb4a: 43.4
  Max fold change, Tubb5: 18.0
  Max fold change, Ubc: 1.2

## Ac-YPPPQVPSRPNRAPPG-NH2 [D15, reference compound]
  proteins pulled down (silver stain, words): unable to pull down any detectable amount of protein
  enrichment of co-precipitated proteins by mass spectroscopy: failed to show any significant enrichment
[1]
  Max fold change, BIN1 (Amph2): 0.163
  Max fold change, CD2-ap: 0.01
  Max fold change, Endophilin-A1: 0.001
  Max fold change, Intersectin-2: 0.944
  Max fold change, SH3d19: 0.232
  Max fold change, SH3kbp1/CIN85: 0.205
  Max fold change, any SH3 domain-containing protein: < 1
